These are literature values, as cited in patent US20210363253A1, “USE OF COMBINED TREATMENT OF PD-1 ANTIBODY AND APATINIB FOR TREATING TRIPLE NEGATIVE BREAST CANCER” (JIANGSU HENGRUI MEDICINE CO., LTD., priority 2017, published 2021).

The conditions of the data set: with oxaliplatin, 5-Fu, docetaxel, doxorubicin; preclinical animal experiments.

Regarding `N#CC1(c2ccc(NC(=O)c3cccnc3NCc3ccncc3)cc2)CCCC1` [Apatinib], the “efficacy of cytotoxic drugs in combination with Apatinib” value is given as “significantly increase their efficacy”.
